Source: paper PMC5641094, “A peptide antagonist of Prep1-p160 interaction improves ceramide-induced insulin resistance in skeletal muscle cells” (Oncotarget, 2017)
Like-named read-outs stand apart in the source and are kept apart here.

Columns and labels:
[1] = tested on: p160 mRNA; experiment: Real-time RT-PCR of p160 mRNA in L6 cells; format: cell-based, rat; details: C2cer 10μM, 18h, normalized to GAPDH
Experimental: (§1) Figure 2 Effect of ceramides on Prep1 and p160 mRNA expression and of Prep1-p160 coprecipitation L6 cells were treated with C2cer (10μM) for 18h and Prep1 (A) or p160 (B) mRNA levels were analyzed by real-time RT-PCR analysis. Data were normalized by the amount of GAPDH mRNA, used as internal control. Bars represent the mean ± SD of three independent experiments, each performed in triplicate. (C) L6 cells were treated with cycloheximide (CHX) at 40μg/mL concentration for 18h and the lysates were analyzed by Western blot with anti-p160 and beta-actin. The autoradiograph shown is representative of three different experiments and subjected to densitometric analysis. (D) Protein lysates from L6 cells treated with C2cer as indicated, were immunoprecipitated with Prep1 antibody and immunoblotted with p160 or Prep1 antibodies. The autoradiograph shown is representative of three different experiments and subjected to densitometric analysis. Asterisks denote statistically significant differences (*p<0.05; **p<0.01).
(§2) Total cellular RNA was isolated from L6 cells by using the RNeasy kit (QIAGEN Sciences, Germany), according to manufacturer instructions. 1μg of cell RNA was reverse-transcribed using Superscript III Reverse Transcriptase (Life Technologies Carlsbad, CA, USA). PCR reactions were analyzed using IQTM SYBR Green Supermix (Bio-Rad, Hercules, CA). […]

[2] = tested on: L6 cells; experiment: Cell toxicity in L6 cells; format: cell-based, rat; details: highest concentration 100μM, data not shown
[3] = tested on: Prep1 mRNA; experiment: Real-time RT-PCR of Prep1 mRNA in L6 cells; format: cell-based, rat; details: C2cer 10μM, 18h, normalized to GAPDH, three experiments in triplicate
Experimental: as §1, §2

[4] = target: T1, p160_20-160 (Homo sapiens, UniProt Q9BQG0); experiment: ELISA-like direct binding of biotinylated Prep1 peptides to coated p160_20-160; details: N-terminally biotinylated peptide variants; plate coated with p160_20-160 (0.1μM); streptavidin-HRP; one-site binding fit; triplicate, performed at least twice
T1 construct: were added to a plate coated with p160_20-160 (0.1μM); His6; made in house
T1 sequence (Q9BQG0 20-160): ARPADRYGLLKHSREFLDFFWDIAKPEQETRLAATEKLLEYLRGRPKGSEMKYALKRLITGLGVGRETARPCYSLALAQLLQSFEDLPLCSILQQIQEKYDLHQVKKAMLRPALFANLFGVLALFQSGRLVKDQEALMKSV
Source text: To address the significance of the association between Prep1 and p160 mediated by C2cer, we generated a synthetic inhibitor of the Prep1/p160 interaction. […] The synthetic peptide covering such stretch of residues was therefore chosen to generate a potential inhibitor. […] Thus, we designed and chemically synthesized a peptide spanning residues 59-72, hereafter Prep1(59-72), which comprises the predicted α-helix and a short loop at the N-terminus (Supplementary Figure 2A, upper panel). […]
(§3) Figure 3 Design and in vitro effects of Prep1(54-72) peptide on Prep1/p160 association (A) Binding curves of Prep1(59-72) and Prep1(54-72) peptides to p160_20-160 by ELISA-like assays. […] (C) L6 cells were incubated with increasing concentrations of the fluorescein-conjugated peptide (FITC-Prep1(54-72)) and peptide uptake was detected by FACS analysis of fluorescein-labeled cells. […] Protein lysates were immunoprecipitated with Prep1 antibodies and analyzed by Western blot using antibodies for p160 or for Prep1. […] The blots were detected by ECL and autoradiography. […]
ELISA experiments were performed using an integrated platform for High-Throughput Screening (Hamilton Robotics, Bonaduz, CH) comprising a fully equipped Starlet 8 channel liquid handler, a robotic arm, a washer and a multi-wavelength plate reader. […] The binding was detected by anti-His HRP-conjugated antibody. […]

[5] = target: T2, p160_20-160/Prep1_45-155 binding (Homo sapiens, UniProt Q9BQG0); experiment: ELISA-like competition of p160_20-160/Prep1_45-155 binding
T2 construct: pre-incubating the His6-tagged-p160_20-160 at 0.25μM with peptides; made in house
T2 sequence (Q9BQG0 20-160): T1 sequence (Q9BQG0 20-160)
Source text: To address the significance of the association between Prep1 and p160 mediated by C2cer, we generated a synthetic inhibitor of the Prep1/p160 interaction. […] The synthetic peptide covering such stretch of residues was therefore chosen to generate a potential inhibitor. […] Thus, we designed and chemically synthesized a peptide spanning residues 59-72, hereafter Prep1(59-72), which comprises the predicted α-helix and a short loop at the N-terminus (Supplementary Figure 2A, upper panel). We also designed and prepared an additional peptide with a slightly longer N-terminal end, named Prep1(54-72) (Supplementary Figure 2A, lower panel), to increase the probability of obtaining a molecule with helical features. […] In order to test the affinity of Prep1 synthetic peptides to p160 protein, ELISA-like experiments were developed where N-terminally biotinylated peptide variants were added to p160_20-160 – coated 96-well plates. As shown in Figure 3A either variants bound p160_20-160 domain in a dose-dependent and saturable manner. […]
as §3
ELISA experiments were performed using an integrated platform for High-Throughput Screening (Hamilton Robotics, Bonaduz, CH) comprising a fully equipped Starlet 8 channel liquid handler, a robotic arm, a washer and a multi-wavelength plate reader. […] In particular, several concentrations of biotinylated peptides at several concentrations were added to a plate coated with p160_20-160 (0.1μM) and binding was detected with streptavidin-HRP. […] The binding was detected by anti-His HRP-conjugated antibody. […]

Compound | effect on p160 mRNA levels [1] | toxicity for the cells [2] | increase of Prep1 mRNA levels [3] | Kd [4] | IC50 ([5]; His6-p160_20-160 0.25μM pre-incubated with peptide 0.001-10μM, plate coated with Prep1_45-155 (0.10μM), anti-His HRP, average of three experiments, read-out: IC50, inhibition of p160_20-160/Prep1_45-155 binding) | IC50 ([5]; as restated in the discussion, read-out: IC50, potency in vitro as complex inhibitor)
CCCCCCCCCCCCC/C=C/[C@@H](O)[C@H](CO)NC(C)=O [C2cer, D-erythro-Sphingosine, N-Acetyl-, reference compound] | not affected | slightly toxic | 3.2 fold |  |  | 
Ac-KQAIYRHPLFPLLALLFEK-NH2 [Prep1(54-72)] |  |  |  | 0.18 µM | 0.2 µM | ~0.2 µM
